The values below come from patent publication US20220389008A1, “4-QUINOLINONE ANTIBACTERIAL COMPOUNDS” (Janssen Sciences Ireland Unlimited Company, priority 2019, published 2022).

pIC50: −log10 of the molar value. Where “and” joins values, the source holds several entries; their conditions need not be identical. Equal entries are not always repeated. Where two headings read alike, the source gives them in different places.

For series [1], the system named is Mycobacterium tuberculosis strain H37Rv ΔctaE-ΔqcrCAB. The experiment in a line: microbe, parasite or virus in culture. The note with it: 240 h. Format: cell-based.
The subject of series [2] is Mitochondrial toxicity (Glu/Gal). The experiment in a line: Mitochondrial toxicity (Glu/Gal) assay. Format: cell-based. Details: key to Score: “negative” means that in the test, it was found to have low mitotoxicity (and hence no mitotoxicity alerts); “positive” means that there were some mitotoxicity alerts; “inconclusive” means that no accurate conclusion could be drawn. The note with it: for Score: mitotoxicity score; for Δ IC50,glu/IC50,gal: ratio glu/gal.

For series [3], the system named is M. tuberculosis (strain H37Rv and H37Ra). The experiment in a line: Time kill kinetics assay (Test 3). The class given is cell-based, Mycobacterium tuberculosis. How it is done: Time Kill Kinetics Assays: Test 3
Bactericidal or bacteriostatic activity of the compounds can be determined in a time kill kinetic assay using the broth dilution method. In this assay, the starting inoculum of M. tuberculosis (strain H37Rv and H37Ra) is 10^6 CFU/ml in Middlebrook (1×) 7H9 broth. The test compounds (cyt bd inhibitors) are tested in combination with a cyt bc inhibitor (for example Q203 or Compound X) at the concentration ranging from 10-30 μM to 0.9-0.3 μM respectively. Tubes receiving no antibacterial agent constitute the culture growth control. The tubes containing the microorganism and the test compounds are incubated at 37° C. After 0, 1, 4, 7, 14 and 21 days of incubation samples are removed for determination of viable counts by serial dilution (10^0 to 10^−6) in Middlebrook 7H9 medium and plating (100 μl) on Middlebrook 7H11 agar. The plates are incubated at 37° C. for 21 days and the number of colonies are determined. Killing curves can be constructed by plotting the log10 CFU per ml versus time. A bactericidal effect of a cytochrome be and cytochrome bd inhibitor (either alone or in combination) is commonly defined as 2-log10 decrease (decrease in CFU per ml) compared to Day 0. The potential carryover effect of the drugs is limited by using 0.4% charcoal in the agar plates, and by serial dilutions and counting the colonies at highest dilution possible used for plating.
Compounds of the examples are/were tested in Test 3 (the kill kinetics) described above, obtaining results expressed as a log reduction in CFUs per ml as compared to Day 0.

Series [4] has as its system Mycobacterium tuberculosis (strain H37Ra), cyt bd. The note with it: Mtb H37Ra; for (i) % OCR after cyt bd inhibitor: test compound 10 μM added after Compound X 0.9 μM; for (ii) % OCR after cccp: test compound 10 μM after Compound X 0.9 μM, then CCCP 1 μM.
The next series relates to rCaCh. The series can be described thus: CVS / cardio tox rCaCh. The class given is binding, rat.
Another series addresses hERG (Homo sapiens, UniProt Q12809). The experiment in a line: CVS / cardio tox hERG (DOF). The class given is binding. The note with it: DOF; read-out: Cardio tox hERG(DOF) (IC50). Background: The hERG channel carries a current that helps repolarise heart muscle cells.
Another series relates to rNaCh. The series can be described thus: CVS / cardio tox rNaCh. Format: binding, rat. The following applies: read-out: Cardio tox rNaCH (IC50).
Setting [5] is: galactose medium, read-out: IC50, gal.
Where [6] appears, read: glucose medium, read-out: IC50, glu.
[7] abbreviates: compound alone 12 μg/ml, Log Day 0 5.56 (Q203 experiment).
[8] abbreviates: compound alone 12 μg/ml, Log Day 0 6.66.
The mark [9] stands for this setting: Q203 alone 0.168 μg/ml, Log Day 0 5.56.
The mark [10] stands for this setting: Compound X alone 0.17 μg/ml, Log Day 0 6.66.

hERG, sequence (Q12809 whole entry): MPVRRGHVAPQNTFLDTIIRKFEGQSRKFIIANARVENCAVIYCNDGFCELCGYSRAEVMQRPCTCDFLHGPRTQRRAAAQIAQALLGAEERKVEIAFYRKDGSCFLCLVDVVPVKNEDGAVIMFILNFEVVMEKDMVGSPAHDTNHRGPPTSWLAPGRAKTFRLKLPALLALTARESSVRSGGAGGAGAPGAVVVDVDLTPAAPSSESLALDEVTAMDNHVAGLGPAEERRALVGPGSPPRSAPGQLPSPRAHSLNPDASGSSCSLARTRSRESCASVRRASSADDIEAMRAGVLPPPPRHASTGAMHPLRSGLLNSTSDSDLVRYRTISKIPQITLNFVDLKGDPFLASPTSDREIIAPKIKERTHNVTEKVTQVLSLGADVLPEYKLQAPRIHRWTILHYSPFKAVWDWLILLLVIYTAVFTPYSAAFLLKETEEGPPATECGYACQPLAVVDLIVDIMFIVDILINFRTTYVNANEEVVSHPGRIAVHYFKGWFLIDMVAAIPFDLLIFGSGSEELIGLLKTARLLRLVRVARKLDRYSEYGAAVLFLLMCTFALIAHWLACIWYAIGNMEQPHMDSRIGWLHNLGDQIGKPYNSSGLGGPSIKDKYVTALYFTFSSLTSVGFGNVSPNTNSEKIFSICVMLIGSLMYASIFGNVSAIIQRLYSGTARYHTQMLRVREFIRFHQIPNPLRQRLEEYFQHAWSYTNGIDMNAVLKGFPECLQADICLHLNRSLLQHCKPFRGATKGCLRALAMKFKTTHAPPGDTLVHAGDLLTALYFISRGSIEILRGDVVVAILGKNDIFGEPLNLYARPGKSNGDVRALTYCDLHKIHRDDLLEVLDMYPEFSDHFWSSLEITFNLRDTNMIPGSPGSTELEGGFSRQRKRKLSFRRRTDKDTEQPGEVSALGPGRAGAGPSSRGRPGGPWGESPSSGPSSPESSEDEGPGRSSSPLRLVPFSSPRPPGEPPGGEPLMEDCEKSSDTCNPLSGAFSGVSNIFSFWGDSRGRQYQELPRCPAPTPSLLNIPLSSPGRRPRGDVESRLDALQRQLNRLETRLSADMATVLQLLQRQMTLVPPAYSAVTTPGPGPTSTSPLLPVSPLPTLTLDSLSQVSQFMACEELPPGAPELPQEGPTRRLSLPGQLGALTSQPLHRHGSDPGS

Take `Cc1c(-c2nc3cc(-c4ccc(OC(F)(F)F)cc4)ccn3n2)[nH]c2ccccc2c1=O` [Compound 2]: the pIC50 (in general, the IC50 on a negative log10 scale, so that one unit is a factor of ten) in series [1] is 5.88. For the same molecule, the pIC50 in series [2] (setting [5]) is 4.00. The pIC50 in series [2] (setting [6]) is 4.00. In addition, in series [2], the Score entry is on record as “negative” and the “Δ IC50,glu/IC50,gal” value was “[x]0”. In series [3] (setting [7]), the “Log Day 21” value amounted to 8.69 log CFUs per ml and the “Log Day 21-Log Day 0” value is given as “+3.13 log CFUs per ml”. In series [4], the “(i) % OCR after cyt bd inhibitor” value was found to be 24.8% and the “(ii) % OCR after cccp” value turned out to be 38.3%.

Turning to `Cc1c(-c2nc3ccc(-c4cccc(OC(F)(F)F)c4)cn3n2)[nH]c2ccccc2c1=O` [Compound 7], the pIC50 in series [1] was 5.85. The negative logarithm of the IC50 (pIC50) in series [2] (setting [5]) is 4.70. For the same molecule, the negative logarithm of the IC50 (pIC50) in series [2] (setting [6]) is 4.70. In series [2], the Score result is “negative” and the “Δ IC50,glu/IC50,gal” value was “[x]0”. In series [3] (setting [8]), the “Log Day 21” value is reported as 9.13 log CFUs per ml and the “Log Day 21-Log Day 0” value is listed as “+2.47 log CFUs per ml”. Besides, in series [4], the “(i) % OCR after cyt bd inhibitor” value was found to be 36.5% and the “(ii) % OCR after cccp” value was 54.6%.

As for `Cc1c(-c2cc3cc(-c4ccc(OC(F)(F)F)cc4)ccn3c2)[nH]c2ccccc2c1=O` [Compound 25], the negative-log IC50 (pIC50) in series [1] was 5.51; in series [2] (setting [5]) it was 5.00; in series [2] (setting [6]), 3.70; at hERG, less than 5.00; in the series on rNaCh it was less than 5.00. Also, in series [2], the Score entry was “positive”. For the same molecule, the “Δ IC50,glu/IC50,gal” value in series [2] was more than 20.2. In the series on rCaCh, the “Cardio tox rCaCh IC50 (µM)” value was >10, >10, >10. Further, in series [4], the “(i) % OCR after cyt bd inhibitor” value is given as 65.2%. The “(ii) % OCR after cccp” value in series [4] came out at 114.3%.

Consider `Cc1c(-c2nc3ccc(-c4ccc(OC(F)(F)F)nc4)cn3n2)[nH]c2ccccc2c1=O` [Compound 26], for which the pIC50 in series [1] is 5.11; in series [2] (setting [5]), 5.02; in series [2] (setting [6]), 4.88; on hERG, less than 5.00; with rNaCh, less than 5.00. Also, the Score result in series [2] is “negative”. For the same molecule, in series [2], the “Δ IC50,glu/IC50,gal” value is “[x]1.39”. In addition, the “Cardio tox rCaCh IC50 (µM)” value in the series with rCaCh was >10, >10, >10. Also, the “(i) % OCR after cyt bd inhibitor” value in series [4] was found to be 71%. Further, the “(ii) % OCR after cccp” value in series [4] turned out to be 116.7%.

For `Cc1c(-c2nc3ccc(F)cn3n2)[nH]c2ccccc2c1=O` [Compound 33], the pIC50 was less than 4.00 in series [1]; 4.00 in series [2] (setting [5]); 4.00 in series [2] (setting [6]); less than 5.00 on hERG; less than 5.00 in the series on rNaCh. For the same molecule, the Score result in series [2] is reported as “negative”. Further, the “Δ IC50,glu/IC50,gal” value in series [2] was “[x]0”. Further, in the series with rCaCh, the “Cardio tox rCaCh IC50 (µM)” value was >10, >10, >10. In addition, the “(i) % OCR after cyt bd inhibitor” value in series [4] stood at 61.2%. Further, the “(ii) % OCR after cccp” value in series [4] stood at 123.6%.

With `Cc1c(-c2cn3cc(Oc4ccc(OC(F)(F)F)cc4)ccc3n2)[nH]c2ccccc2c1=O` [Compound 44], the negative-log IC50 (pIC50) was 5.01 in series [1]; 4.23 in series [2] (setting [5]); 4.32 in series [2] (setting [6]); 5.82 on hERG; 5.92 in the series with rNaCh. Also, in series [2], the Score result is “negative”. In addition, in series [2], the “Δ IC50,glu/IC50,gal” value is 0.8. The “Cardio tox rCaCh IC50 (µM)” value in the series on rCaCh was determined as 3.8. Further, the “(i) % OCR after cyt bd inhibitor” value in series [4] is given as 76%. In series [4], the “(ii) % OCR after cccp” value was 138.6%.

Take `Cc1c(-c2cn3ccc(Cc4ccc(OC(F)(F)F)cc4)cc3n2)[nH]c2ccccc2c1=O` [Compound 52]: the pIC50 in series [1] is less than 4.00; in series [2] (setting [5]), 3.97; in series [2] (setting [6]), 3.87; at hERG it was less than 5.00; in the series on rNaCh it was 5.13. In addition, the Score result in series [2] is recorded as “negative”. In addition, the “Δ IC50,glu/IC50,gal” value in series [2] was 1.2. The “Cardio tox rCaCh IC50 (µM)” value with rCaCh was approximately 1.9. Also, the “(i) % OCR after cyt bd inhibitor” value in series [4] is given as 82.2%. Besides, the “(ii) % OCR after cccp” value in series [4] was 148.1%.

Take `Cc1c(-c2nc3ccc(Br)cn3n2)[nH]c2ccccc2c1=O` [Compound 55]: the negative logarithm of the IC50 (pIC50) in series [1] is 4.44; in series [2] (setting [5]), 3.70 and 4.00; in series [2] (setting [6]), 3.70 and 4.00; at hERG, less than 5.00; in the series on rNaCh, less than 5.00. Further, the Score entry in series [2] was “negative”. Also, the “Δ IC50,glu/IC50,gal” value in series [2] is “[x]0;[x]0”. In addition, the “Cardio tox rCaCh IC50 (µM)” value with rCaCh was >10, >10, >10. The “(i) % OCR after cyt bd inhibitor” value in series [4] is 109.2%. In addition, the “(ii) % OCR after cccp” value in series [4] was 148.3%.

In the case of `Cc1c(-c2nc3ccc(-c4cn(CC(F)(F)F)nn4)cn3n2)[nH]c2ccccc2c1=O` [Compound 58], the pIC50 in series [1] was less than 4.60; in series [2] (setting [5]), 4.00; in series [2] (setting [6]), 4.00; at hERG, less than 5.00; in the series with rNaCh, less than 5.00. The Score entry in series [2] was “negative”. Also, the “Δ IC50,glu/IC50,gal” value in series [2] was “[x]0”. Also, the “Cardio tox rCaCh IC50 (µM)” value in the series with rCaCh is >10, >10, >10. In series [4], the “(i) % OCR after cyt bd inhibitor” value is 139.74%. Also, in series [4], the “(ii) % OCR after cccp” value came out at 153.33%.

In the case of `Cc1c(-c2cn3cc(Cc4ccc(OC(F)(F)F)cc4)ccc3n2)[nH]c2ccccc2c1=O` [Compound 63], the negative logarithm of the IC50 (pIC50) was 4.12 in series [1]; 4.01 in series [2] (setting [5]); 3.70 in series [2] (setting [6]); less than 5.00 at hERG; 5.55 in the series on rNaCh. The Score result in series [2] is “inconclusive”. Further, the “Δ IC50,glu/IC50,gal” value in series [2] is given as more than 1.7. Further, in the series with rCaCh, the “Cardio tox rCaCh IC50 (µM)” value is recorded as more than 3.0. For the same molecule, the “(i) % OCR after cyt bd inhibitor” value in series [4] is 85.8%. In series [4], the “(ii) % OCR after cccp” value was 157.9%.

As to `COc1cc2[nH]c(-c3nc4ccc(-c5ccc(OC(F)(F)F)cc5)cn4n3)c(C)c(=O)c2cc1OC` [Compound 70], the negative logarithm of the IC50 (pIC50) is less than 4.30 in series [1]; 4.57 in series [2] (setting [5]); 4.00 in series [2] (setting [6]); less than 5.00 at hERG; less than 5.00 in the series with rNaCh. The Score result in series [2] is given as “inconclusive”. The “Δ IC50,glu/IC50,gal” value in series [2] was “[x]3.69”. Moreover, in the series with rCaCh, the “Cardio tox rCaCh IC50 (µM)” value is >10, >10, >10. For the same molecule, the “(i) % OCR after cyt bd inhibitor” value in series [4] is listed as 102.2%. Moreover, the “(ii) % OCR after cccp” value in series [4] was 165.65%.

`CCc1nc2ccc(Cl)cn2c1C(=O)NCc1ccc(N2CCC(c3ccc(OC(F)(F)F)cc3)CC2)cc1` [Compound Q203, 6-chloro-2-ethyl-N-(4-(4-(4-(trifluoromethoxy)phenyl)piperidin-1-yl)benzyl)imidazo[1,2-a]pyridine-3-carboxamide, reference compound]: in series [3] (setting [9]), the “Log Day 21” value was 2.59 log CFUs per ml and the “Log Day 21-Log Day 0” value is listed as −2.97 log CFUs per ml.

With `CCc1nc2ccc(Cl)cn2c1C(=O)NCc1ccc(C2CC3(C2)CN(S(=O)(=O)C(F)(F)F)C3)cc1` [Compound X, 6-chloro-2-ethyl -N-({4-[2-(trifluoromethanesulfonyl)-2-azaspiro[3.3]heptan-6-yl]phenyl}methyl)imidazo[1,2-a]pyridine-3-carboxamide, reference compound], in series [3] (setting [10]), the “Log Day 21” value came to 5.93 log CFUs per ml and the “Log Day 21-Log Day 0” value is given as −0.73 log CFUs per ml.
